# Reference: the supplement of paper PMC10307832
# What was measured:
# Experiment in all cases: relative viability (nuclei count vs DMSO), 5 days (fraction); higher = more cells survive
# [1] = compound: C1/C(=C\C2=CC=CS2)/C(=O)/C(=C/C3=CC=CS3)/C1 + O=C(c1cc(Cc2n[nH]c(=O)c3ccccc23)ccc1F)N1CCN(C(=O)C2CC2)CC1 [Olaparib] (partner 8 µM)
# In short: (§1)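 Medians of duplicate plates are given as relative viability. That measure is the nuclei count in treated wells divided by the count in vehicle wells. Counts were taken on 4× images of lung cancer cell lines in 1536-well plates, 5 days after pin-tool dosing the day after seeding with one drug alone or a fixed anchor-drug dose plus five library-drug doses (not always all listed) in √10 steps.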
# Lestaurtinib + Lapatinib = compound: C[C@]12O[C@H](C[C@]1(O)CO)n1c3ccccc3c3c4c(c5c6ccccc6n2c5c31)CNC4=O [Lestaurtinib] + CS(=O)(=O)CCNCc1ccc(-c2ccc3ncnc(Nc4ccc(OCc5cccc(F)c5)c(Cl)c4)c3c2)o1 [Lapatinib] (partner 2 µM)
# In short: as §1
# TPCA-1 + Trametinib = compound: C1=CC(=CC=C1C2=CC(=C(S2)NC(=O)N)C(=O)N)F [TPCA-1] + CC(=O)Nc1cccc(-n2c(=O)n(C3CC3)c(=O)c3c(Nc4ccc(I)cc4F)n(C)c(=O)c(C)c32)c1 [Trametinib] (partner 0.02 µM)
# In short: as §1
# Lestaurtinib + Dasatinib = compound: C[C@]12O[C@H](C[C@]1(O)CO)n1c3ccccc3c3c4c(c5c6ccccc6n2c5c31)CNC4=O [Lestaurtinib] + Cc1nc(Nc2ncc(C(=O)Nc3c(C)cccc3Cl)s2)cc(N2CCN(CCO)CC2)n1 [Dasatinib] (partner 0.075 µM)
# In short: as §1
cell line,measurement,setting,value
UMC-11,relative viability,[1]; first compound 0.2 µM,0.462
same,relative viability,[1]; first compound 0.6325 µM,0.347
same,relative viability,[1]; first compound 2 µM,0.405
same,relative viability,[1]; first compound 6.325 µM,0.475
same,relative viability,[1]; first compound 20 µM,0.391
same,relative viability,Lestaurtinib + Lapatinib; first compound 0.005 µM,1.01
same,relative viability,Lestaurtinib + Lapatinib; first compound 0.01581 µM,0.921
same,relative viability,Lestaurtinib + Lapatinib; first compound 0.05 µM,0.65
same,relative viability,Lestaurtinib + Lapatinib; first compound 0.1581 µM,0.305
same,relative viability,Lestaurtinib + Lapatinib; first compound 0.5 µM,0.196
same,relative viability,TPCA-1 + Trametinib; first compound 0.04 µM,0.648
same,relative viability,TPCA-1 + Trametinib; first compound 0.1265 µM,0.612
same,relative viability,TPCA-1 + Trametinib; first compound 0.4 µM,0.804
same,relative viability,TPCA-1 + Trametinib; first compound 1.265 µM,0.831
same,relative viability,TPCA-1 + Trametinib; first compound 4 µM,0.152
same,relative viability,Lestaurtinib + Dasatinib; first compound 0.005 µM,0.543
same,relative viability,Lestaurtinib + Dasatinib; first compound 0.01581 µM,0.501
same,relative viability,Lestaurtinib + Dasatinib; first compound 0.05 µM,0.247
same,relative viability,Lestaurtinib + Dasatinib; first compound 0.1581 µM,0.231
same,relative viability,Lestaurtinib + Dasatinib; first compound 0.5 µM,0.146
